Blank lines part the entries; values can stand above or below the compound they belong to.
What was measured:
SRC Catalytic Domain [1] = molecular target: T1, SRC Catalytic Domain (Homo sapiens, UniProt P12931); conditions: read-out: ATP Km; SRC CD
PAK7 Catalytic Domain [2] = molecular target: T2, PAK7 Catalytic Domain (Homo sapiens, UniProt Q9P286); assay: Caliper mobility shift kinase activity assay; format: biochemical; conditions: PAK7 CD; read-out: ATP Km
T2 construct: For all of them, we expressed and purified the catalytic domain separately; His-tag; made in house; host or cells: Escherichia coli
T2 sequence (Q9P286 449-700 limits assumed): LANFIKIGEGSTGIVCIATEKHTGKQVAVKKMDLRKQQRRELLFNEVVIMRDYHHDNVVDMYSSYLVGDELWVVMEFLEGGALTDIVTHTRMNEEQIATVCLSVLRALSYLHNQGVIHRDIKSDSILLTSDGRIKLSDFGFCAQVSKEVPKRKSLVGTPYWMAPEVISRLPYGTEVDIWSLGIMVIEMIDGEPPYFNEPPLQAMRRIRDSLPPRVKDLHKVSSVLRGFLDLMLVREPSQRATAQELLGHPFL

STK3 Catalytic Domain [3] = molecular target: T3, STK3 Catalytic Domain (Homo sapiens, UniProt Q13188); assay: Caliper mobility shift kinase activity assay; format: biochemical; conditions: STK3 CD; read-out: ATP Km
T3 construct: For all of them, we expressed and purified the catalytic domain separately; His-tag; made in house; host or cells: Escherichia coli
T3 sequence (Q13188 27-278 limits assumed): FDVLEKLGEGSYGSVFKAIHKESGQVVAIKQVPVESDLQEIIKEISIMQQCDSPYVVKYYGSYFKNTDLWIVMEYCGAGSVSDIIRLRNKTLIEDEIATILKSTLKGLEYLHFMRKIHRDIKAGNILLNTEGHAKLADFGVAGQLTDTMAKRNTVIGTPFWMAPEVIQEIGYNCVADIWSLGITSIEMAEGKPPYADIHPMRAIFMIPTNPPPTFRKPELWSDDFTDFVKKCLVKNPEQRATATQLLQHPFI

AKT3 Catalytic Domain [4] = molecular target: T4, AKT3 Catalytic Domain (Homo sapiens, UniProt Q9Y243); assay: Caliper mobility shift kinase activity assay; format: biochemical; conditions: AKT3 CD (122–479); read-out: ATP Km
T4 construct: AKT3 (Q9Y243); CD; His-tag; made in house; host or cells: Escherichia coli
T4 sequence (Q9Y243 122-479): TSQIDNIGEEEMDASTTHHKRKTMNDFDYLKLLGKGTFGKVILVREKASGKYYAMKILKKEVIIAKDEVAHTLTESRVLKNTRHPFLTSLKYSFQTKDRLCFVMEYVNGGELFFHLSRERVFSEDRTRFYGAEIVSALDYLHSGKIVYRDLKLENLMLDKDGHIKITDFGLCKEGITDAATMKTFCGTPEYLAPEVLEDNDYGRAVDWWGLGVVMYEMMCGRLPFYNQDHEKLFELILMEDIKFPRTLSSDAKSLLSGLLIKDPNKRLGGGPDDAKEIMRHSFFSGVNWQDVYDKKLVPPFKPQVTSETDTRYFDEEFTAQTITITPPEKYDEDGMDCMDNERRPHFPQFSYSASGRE

FES Catalytic Domain+SH2 [5] = molecular target: T5, FES Catalytic Domain+SH2 (Homo sapiens, UniProt P07332); assay: Caliper mobility shift kinase activity assay; format: biochemical; conditions: FES CD+SH2; read-out: ATP Km
T5 construct: for 8, we also made a longer version containing one or more additional domains; His-tag; made in house; host or cells: Escherichia coli
T5 sequence (P07332 448-822 limits assumed): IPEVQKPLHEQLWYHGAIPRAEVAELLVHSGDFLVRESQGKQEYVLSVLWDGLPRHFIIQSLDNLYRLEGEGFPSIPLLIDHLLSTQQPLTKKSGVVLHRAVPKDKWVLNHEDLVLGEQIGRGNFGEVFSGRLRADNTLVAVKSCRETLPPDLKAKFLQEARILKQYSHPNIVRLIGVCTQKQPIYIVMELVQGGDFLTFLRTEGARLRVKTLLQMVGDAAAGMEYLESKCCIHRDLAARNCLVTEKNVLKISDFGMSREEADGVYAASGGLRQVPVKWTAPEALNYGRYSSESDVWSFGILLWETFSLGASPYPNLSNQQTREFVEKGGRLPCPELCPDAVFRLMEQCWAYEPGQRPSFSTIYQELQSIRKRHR

CDK2 + Cyclin A [6] = molecular target: T6, CDK2 + Cyclin A (Homo sapiens, UniProt P24941); assay: Caliper mobility shift kinase activity assay; format: biochemical; conditions: CDK2 with CCNA2 (Cyclin A); read-out: ATP Km
T6 construct: CDK2 (P24941); 1–299; His-tag; made in house; host or cells: Escherichia coli

[7] = molecular target: T7, PAK4 Catalytic Domain+PBD (Homo sapiens, UniProt O96013); assay: Caliper mobility shift kinase activity assay; format: biochemical; conditions: PAK4 CD+PBD; read-out: ATP Km
T7 construct: for 8, we also made a longer version containing one or more additional domains; His-tag; made in house; host or cells: Escherichia coli
T7 sequence (O96013 whole entry, the tested form may be a part): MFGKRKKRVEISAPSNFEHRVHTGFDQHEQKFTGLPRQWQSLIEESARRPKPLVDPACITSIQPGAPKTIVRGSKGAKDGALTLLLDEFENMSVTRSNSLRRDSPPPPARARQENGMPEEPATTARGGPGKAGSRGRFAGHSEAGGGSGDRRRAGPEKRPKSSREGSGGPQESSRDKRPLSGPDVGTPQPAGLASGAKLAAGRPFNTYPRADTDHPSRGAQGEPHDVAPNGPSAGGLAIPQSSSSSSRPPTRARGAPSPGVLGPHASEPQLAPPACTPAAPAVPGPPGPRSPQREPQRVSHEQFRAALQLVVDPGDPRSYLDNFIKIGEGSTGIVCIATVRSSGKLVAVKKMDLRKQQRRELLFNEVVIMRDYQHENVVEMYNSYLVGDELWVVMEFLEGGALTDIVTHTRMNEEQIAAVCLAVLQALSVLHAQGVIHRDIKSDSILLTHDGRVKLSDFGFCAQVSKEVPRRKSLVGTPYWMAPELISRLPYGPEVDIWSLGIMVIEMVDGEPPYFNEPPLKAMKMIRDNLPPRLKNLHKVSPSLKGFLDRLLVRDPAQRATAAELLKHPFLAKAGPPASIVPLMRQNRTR
Experimental: (§1) This ensures comparability of compound potency between the kinases. […] […].
(§2) […]. […] […].
(§3) IC50 was determined once for each compound-kinase combination.

PAK4 Catalytic Domain [8] = molecular target: T8, PAK4 Catalytic Domain (Homo sapiens, UniProt O96013); assay: Caliper mobility shift kinase activity assay; format: biochemical; conditions: PAK4 CD; read-out: ATP Km
T8 construct: For all of them, we expressed and purified the catalytic domain separately; His-tag; made in house; host or cells: Escherichia coli
T8 sequence (O96013 321-572 limits assumed): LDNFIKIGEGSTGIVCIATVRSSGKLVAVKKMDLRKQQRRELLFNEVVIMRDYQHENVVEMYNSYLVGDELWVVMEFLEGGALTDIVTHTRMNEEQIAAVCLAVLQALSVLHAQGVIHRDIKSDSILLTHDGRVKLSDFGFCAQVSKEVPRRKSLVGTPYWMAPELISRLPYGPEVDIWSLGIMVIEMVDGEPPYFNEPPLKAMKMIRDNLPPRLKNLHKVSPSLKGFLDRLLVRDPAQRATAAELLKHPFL
Experimental: as §1, §2, §3

FES Catalytic Domain [9] = molecular target: T9, FES Catalytic Domain (Homo sapiens, UniProt P07332); assay: Caliper mobility shift kinase activity assay; format: biochemical; conditions: FES CD; read-out: ATP Km
T9 construct: For all of them, we expressed and purified the catalytic domain separately; His-tag; made in house; host or cells: Escherichia coli
T9 sequence (P07332 561-822 limits assumed): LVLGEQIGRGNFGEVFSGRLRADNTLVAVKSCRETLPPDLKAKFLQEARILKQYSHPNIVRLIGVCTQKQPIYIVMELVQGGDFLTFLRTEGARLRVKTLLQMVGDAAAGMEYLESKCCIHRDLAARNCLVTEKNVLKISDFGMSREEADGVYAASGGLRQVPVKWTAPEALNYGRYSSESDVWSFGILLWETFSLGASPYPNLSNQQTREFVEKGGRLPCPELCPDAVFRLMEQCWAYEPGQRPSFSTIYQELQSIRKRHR

[10] = molecular target: T10, SRC Catalytic Domain+SH2+SH3 (Homo sapiens, UniProt P12931); conditions: read-out: ATP Km; SRC CD+SH2/3
CDK2 + Cyclin E [11] = molecular target: T11, CDK2 + Cyclin E (Homo sapiens, UniProt P24941); assay: Caliper mobility shift kinase activity assay; format: biochemical; conditions: CDK2 with CCNE1 (Cyclin E); read-out: ATP Km
T11 construct: CDK2 (P24941); 1–299; His-tag; made in house; host or cells: Escherichia coli

CHK2 Catalytic Domain [12] = molecular target: T12, CHK2 Catalytic Domain (Homo sapiens, UniProt O96017); assay: Caliper mobility shift kinase activity assay; format: biochemical; conditions: CHK2 CD; read-out: ATP Km
T12 construct: For all of them, we expressed and purified the catalytic domain separately; His-tag; made in house; host or cells: Escherichia coli
T12 sequence (O96017 220-486 limits assumed): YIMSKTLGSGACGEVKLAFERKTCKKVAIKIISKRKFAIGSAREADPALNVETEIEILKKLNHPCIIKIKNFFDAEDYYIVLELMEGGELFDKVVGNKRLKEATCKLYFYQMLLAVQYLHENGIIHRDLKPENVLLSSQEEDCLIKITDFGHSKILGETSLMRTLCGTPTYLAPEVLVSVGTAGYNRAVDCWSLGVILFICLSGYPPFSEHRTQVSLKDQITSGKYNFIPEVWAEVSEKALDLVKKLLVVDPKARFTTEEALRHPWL

[13] = molecular target: T13, STK3 Catalytic domain+SARAH (Homo sapiens, UniProt Q13188); assay: Caliper mobility shift kinase activity assay; format: biochemical; conditions: STK3 CD+SARAH; read-out: ATP Km
T13 construct: for 8, we also made a longer version containing one or more additional domains; His-tag; made in house; host or cells: Escherichia coli
T13 sequence (Q13188 1-491): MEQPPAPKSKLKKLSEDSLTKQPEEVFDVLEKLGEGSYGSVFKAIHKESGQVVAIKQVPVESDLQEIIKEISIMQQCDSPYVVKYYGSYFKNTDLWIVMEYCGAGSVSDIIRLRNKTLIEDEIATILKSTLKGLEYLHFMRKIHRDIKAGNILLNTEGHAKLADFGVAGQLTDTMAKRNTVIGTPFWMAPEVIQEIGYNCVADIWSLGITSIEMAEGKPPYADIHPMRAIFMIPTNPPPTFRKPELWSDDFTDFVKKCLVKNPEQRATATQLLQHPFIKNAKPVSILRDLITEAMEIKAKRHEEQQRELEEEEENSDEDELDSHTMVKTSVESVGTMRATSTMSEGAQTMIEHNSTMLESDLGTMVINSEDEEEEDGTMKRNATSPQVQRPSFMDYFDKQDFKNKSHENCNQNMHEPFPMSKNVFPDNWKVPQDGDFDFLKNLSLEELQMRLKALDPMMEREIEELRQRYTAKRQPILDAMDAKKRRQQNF

DMPK Catalytic Domain [14] = molecular target: T14, DMPK Catalytic Domain (Homo sapiens, UniProt Q09013); assay: Caliper mobility shift kinase activity assay; format: biochemical; conditions: DMPK CD; read-out: ATP Km
T14 construct: For all of them, we expressed and purified the catalytic domain separately; His-tag; made in house; host or cells: Escherichia coli
T14 sequence (Q09013 71-339 limits assumed): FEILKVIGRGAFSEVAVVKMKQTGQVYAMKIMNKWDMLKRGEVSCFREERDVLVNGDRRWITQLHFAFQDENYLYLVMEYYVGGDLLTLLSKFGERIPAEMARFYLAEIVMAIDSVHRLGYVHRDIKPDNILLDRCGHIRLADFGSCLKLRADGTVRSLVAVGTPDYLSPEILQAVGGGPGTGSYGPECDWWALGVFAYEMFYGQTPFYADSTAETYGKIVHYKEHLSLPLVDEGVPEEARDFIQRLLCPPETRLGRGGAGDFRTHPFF

[15] = molecular target: T13, STK3 Catalytic domain+SARAH; assay: Differential Scanning Fluorimetry (DSF) Tm shift; format: binding; conditions: 2 µM protein, 10 µM inhibitor, average of 3 experiments, each in duplicate
CDK2 + Cyclin E [16] = molecular target: T11, CDK2 + Cyclin E; assay: Differential Scanning Fluorimetry (DSF) Tm shift; format: binding; conditions: CDK2 + Cyclin E; 2 µM protein, 10 µM inhibitor; average of 3 experiments, each in duplicate
[17] = molecular target: T7, PAK4 Catalytic Domain+PBD; assay: Differential Scanning Fluorimetry (DSF) Tm shift; format: binding; conditions: 2 µM protein, 10 µM inhibitor, average of 3 experiments, each in duplicate
CHK2 Catalytic Domain [18] = molecular target: T12, CHK2 Catalytic Domain; assay: Differential Scanning Fluorimetry (DSF) Tm shift; format: binding; conditions: 2 µM protein, 10 µM inhibitor, average of 3 experiments, each in duplicate
CDK2 + Cyclin A [19] = molecular target: T6, CDK2 + Cyclin A; assay: Differential Scanning Fluorimetry (DSF) Tm shift; format: binding; conditions: CDK2 + Cyclin A; 2 µM protein, 10 µM inhibitor; average of 3 experiments, each in duplicate
DMPK Catalytic Domain [20] = molecular target: T14, DMPK Catalytic Domain; assay: Differential Scanning Fluorimetry (DSF) Tm shift; format: binding; conditions: 2 µM protein, 10 µM inhibitor, average of 3 experiments, each in duplicate
FES Catalytic Domain+SH2 [21] = molecular target: T5, FES Catalytic Domain+SH2; assay: Differential Scanning Fluorimetry (DSF) Tm shift; format: binding; conditions: 2 µM protein, 10 µM inhibitor, average of 3 experiments, each in duplicate
FAK2 Catalytic Domain = molecular target: T15, FAK2 Catalytic Domain (Homo sapiens, UniProt Q14289); assay: Differential Scanning Fluorimetry (DSF) Tm shift; format: binding; conditions: 2 µM protein, 10 µM inhibitor, average of 3 experiments, each in duplicate
T15 construct: For all of them, we expressed and purified the catalytic domain separately; His-tag; made in house; host or cells: Escherichia coli
T15 sequence (Q14289 425-683 limits assumed): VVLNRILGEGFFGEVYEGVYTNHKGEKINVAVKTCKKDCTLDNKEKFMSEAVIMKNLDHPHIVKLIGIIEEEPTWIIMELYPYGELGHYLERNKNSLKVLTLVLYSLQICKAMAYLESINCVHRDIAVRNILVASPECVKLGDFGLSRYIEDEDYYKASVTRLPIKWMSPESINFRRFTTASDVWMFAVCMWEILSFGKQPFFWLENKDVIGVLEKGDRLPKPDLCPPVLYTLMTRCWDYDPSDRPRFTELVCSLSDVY

PAK4 Catalytic Domain [22] = molecular target: T8, PAK4 Catalytic Domain; assay: Differential Scanning Fluorimetry (DSF) Tm shift; format: binding; conditions: 2 µM protein, 10 µM inhibitor, average of 3 experiments, each in duplicate
[23] = molecular target: T10, SRC Catalytic Domain+SH2+SH3; assay: Differential Scanning Fluorimetry (DSF) Tm shift; format: binding; conditions: 2 µM protein, 10 µM inhibitor, average of 3 experiments, each in duplicate
PAK7 Catalytic Domain [24] = molecular target: T2, PAK7 Catalytic Domain; assay: Differential Scanning Fluorimetry (DSF) Tm shift; format: binding; conditions: 2 µM protein, 10 µM inhibitor, average of 3 experiments, each in duplicate
FES Catalytic Domain [25] = molecular target: T9, FES Catalytic Domain; assay: Differential Scanning Fluorimetry (DSF) Tm shift; format: binding; conditions: 2 µM protein, 10 µM inhibitor, average of 3 experiments, each in duplicate
SRC Catalytic Domain [26] = molecular target: T1, SRC Catalytic Domain; assay: Differential Scanning Fluorimetry (DSF) Tm shift; format: binding; set-up: For all of them, we expressed and purified the catalytic domain separately; His-tag; made in house; host or cells: Escherichia coli; conditions: 2 µM protein, 10 µM inhibitor, average of 3 experiments, each in duplicate
AKT3 Catalytic Domain [27] = molecular target: T4, AKT3 Catalytic Domain; assay: Differential Scanning Fluorimetry (DSF) Tm shift; format: binding; conditions: 2 µM protein, 10 µM inhibitor, average of 3 experiments, each in duplicate
STK3 Catalytic Domain [28] = molecular target: T3, STK3 Catalytic Domain; assay: Differential Scanning Fluorimetry (DSF) Tm shift; format: binding; conditions: 2 µM protein, 10 µM inhibitor, average of 3 experiments, each in duplicate

Km (SRC Catalytic Domain [1]): 134 ± 16 µM | Km (PAK7 Catalytic Domain [2]): 5 ± 0.4 µM | Km (STK3 Catalytic Domain [3]): 140 ± 12 µM | Km (AKT3 Catalytic Domain [4]): 564 ± 36 µM | Km (FES Catalytic Domain+SH2 [5]): 53 ± 13 µM | Km (CDK2 + Cyclin A [6]): 238 ± 12 µM | Km [7]: 11 ± 1 µM | Km (PAK4 Catalytic Domain [8]): 11 ± 1 µM | Km (FES Catalytic Domain [9]): 49 ± 11 µM | Km [10]: 226 ± 33 µM | Km (CDK2 + Cyclin E [11]): 145 ± 4 µM | Km (CHK2 Catalytic Domain [12]): 130 ± 13 µM | Km [13]: 66 ± 2 µM | Km (DMPK Catalytic Domain [14]): 470 ± 69 µM
SMILES: Nc1ncnc2c1ncn2[C@@H]1O[C@H](COP(=O)(O)OP(=O)(O)OP(=O)(O)O)[C@@H](O)[C@H]1O [ATP]

SMILES: O=C1Cc2c([nH]c3ccc(Br)cc23)-c2ccccc2N1 [Kenpaullone]
Melting temperature (Tm) shift [15]: 1.5 degrees Celcius | Melting temperature (Tm) shift (CDK2 + Cyclin E [16]): 0.3 degrees Celcius | Melting temperature (Tm) shift [17]: 3.6 degrees Celcius | Melting temperature (Tm) shift (CHK2 Catalytic Domain [18]): 3.4 degrees Celcius | Melting temperature (Tm) shift (CDK2 + Cyclin A [19]): 0.4 degrees Celcius | Melting temperature (Tm) shift (DMPK Catalytic Domain [20]): 1.9 degrees Celcius | Melting temperature (Tm) shift (FES Catalytic Domain+SH2 [21]): 0.0 degrees Celcius | Melting temperature (Tm) shift (FAK2 Catalytic Domain): 0.3 degrees Celcius | Melting temperature (Tm) shift (PAK4 Catalytic Domain [22]): 1.4 degrees Celcius | Melting temperature (Tm) shift [23]: 0.2 degrees Celcius | Melting temperature (Tm) shift (PAK7 Catalytic Domain [24]): 0.7 degrees Celcius | Melting temperature (Tm) shift (FES Catalytic Domain [25]): 0.4 degrees Celcius | Melting temperature (Tm) shift (SRC Catalytic Domain [26]): 0.4 degrees Celcius | Melting temperature (Tm) shift (AKT3 Catalytic Domain [27]): 0.0 degrees Celcius | Melting temperature (Tm) shift (STK3 Catalytic Domain [28]): 0.7 degrees Celcius
